Bridge positions count the residues as written; N and C are the ends. Square brackets hold non-standard residues; d marks the D form. Peptide text beside a SMILES is read from it.
Assays:
[1] = species on record: Rattus norvegicus; assay: Relative potency of compound to inhibit growth hormone secretion in rat anterior pituitary cells; format: functional, Pituitary gland cell
[2] = species on record: Rattus norvegicus; assay: Relative potency of compound to inhibit insulin secretion […]; format: functional
[3] = species on record: Rattus norvegicus; assay: Relative potency of compound to inhibit glucagon secretion […]; format: functional

Compound | Relative potency [1] | Relative potency [2] | Relative potency [3]
NCCCC[C@@H]1NC(=O)[C@@H](Cc2c[nH]c3ccccc23)NC(=O)[C@H](Cc2ccccc2)NC(=O)[C@H](Cc2ccccc2)NC(=O)[C@@H](N)CSSC[C@@H](C(=O)O)NC(=O)[C@H](Cc2ccccc2)NC1=O | <0.01 | <1 | <1
C[C@@H](O)[C@@H]1NC(=O)[C@H](CCCCN)NC(=O)[C@@H](Cc2c[nH]c3ccccc23)NC(=O)[C@H](Cc2ccccc2)NC(=O)[C@H](Cc2ccccc2)NC(=O)[C@@H](N)CSSC[C@@H](C(=O)O)NC(=O)[C@H](Cc2ccccc2)NC1=O (H-CFF[dW]KTFC-OH; disulfide 1-8) | 4 | 45 | 7

— ChEMBL document CHEMBL1141179 (J Med Chem, 2005)
